The record followed here is patent US12012467B2, “Small molecule DCN1 inhibitors and therapeutic methods using the same” (THE REGENTS OF THE UNIVERSITY OF MICHIGAN, priority 2017, dated 2024).

Each structure is given as a SMILES string. Numbered stars: 1 amine (or outer) side, 2 acyl side, 3 side chain; on linkers, the order of the positions; unused ones are H or OH. Square brackets hold non-standard residues; d marks the D form. Peptide text beside a SMILES is read from it. * marks the point of attachment. Ala(6-iPr-benzothiazol-2-yl) = CC(C)c1ccc2nc(C[C@H](N)C(=O)O)sc2c1; Abu = CC[C@H](N)C(=O)O; CO = O=C([*:1])[*:2]; Propionyl = CCC(=O)* A value given as a limit tells only on which side of the number the result lay.

DCN1, sequence (Q96GG9 58-259): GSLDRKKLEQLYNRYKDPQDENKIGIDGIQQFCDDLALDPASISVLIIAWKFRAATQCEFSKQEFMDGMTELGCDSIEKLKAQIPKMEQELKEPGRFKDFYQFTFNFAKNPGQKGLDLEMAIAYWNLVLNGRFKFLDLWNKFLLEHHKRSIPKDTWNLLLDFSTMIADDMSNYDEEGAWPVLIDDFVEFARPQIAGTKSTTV

The first test addresses DCN1 (Homo sapiens (Human), UniProt Q96GG9). Nature of the test: Competitive FP binding assay. The following applies: bounds given in μM; read-out: Binding affinity to DCN1 (IC50). In a few lines: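 FP competition with DCN1 in 100 mM phosphate pH 6.5, 0.02% Tween-20, 2% DMSO, probe 5 nM final. Equilibrated 30 min at room temperature with shaking. DCN1 was His6-tagged (uncleaved), expressed in E. coli Rosetta2 and purified by Ni-NTA and gel filtration.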
Take `CC[C@H](C)[C@H](NC(=O)[C@@H](N)Cc1nc2ccc(C(C)C)cc2s1)C(=O)N[C@@H](CCCCN)C(=O)N[C@@H](CC(C)C)C(N)=O` [Example 272] (H-[Ala(6-iPr-benzothiazol-2-yl)]IKL-NH2): the IC50 was more than 10 µM.
Same read-out and setting: the same measure for `CCC(=O)N[C@@H](Cc1nc2ccc(C(C)C)cc2s1)C(=O)N[C@@H](CN)Cc1ccccc1` [Example 90]: more than 5 µM; for `CCC(=O)N[C@@H](Cc1ccccn1)C(=O)N[C@H](C(=O)N[C@@H](CCCCN)C(=O)NC(c1ccccc1)c1ccccc1)[C@@H](C)CC` [Example 132]: more than 10 µM.
Still for that read-out and setting: the same measure for `CCC(=O)N[C@H](Cc1nc2ccc(Cl)cc2s1)C(=O)N[C@H](C(=O)N[C@@H](CCCCN)C(=O)N[C@@H]1CNCc2ccccc21)C1CCOCC1` [Example 44]: more than 1 µM; for `CCC(=O)N[C@@H](Cc1nc2ccccc2n1C)C(=O)N[C@H](C(=O)N[C@@H](CCCCN)C(=O)NC(c1ccccc1)c1ccccc1)[C@@H](C)CC` [Example 136]: more than 5 µM; for `CCC(=O)N[C@H](CNC(=O)[C@H]1CCCCN1)Cc1nc2ccc(C(C)C)cc2s1` [Example 270]: more than 10 µM.

Still in this test, the particulars now being: read-out: Binding affinity to DCN1 (IC50 (nM)).
Take `CCC(=O)N[C@@H](Cc1nc2ccc(Cl)cc2s1)C(=O)N[C@H](C(=O)N[C@@H](CC1CCN(C)CC1)C(=O)N[C@@H]1CCOc2ccccc21)C1CCOCC1` [Example 42]: the IC50 was found to be 0.299 µM.
On to `CCC(=O)N[C@H](CNC(=O)CC1CCCC1)Cc1nc2ccc(Cl)cc2s1` [Example 255], for which the IC50 worked out at 0.802 µM.
As for `CCC(=O)N[C@@H](Cc1ccc2ccccc2c1)C(=O)N[C@H](C(=O)N[C@@H](CCCCN)C(=O)N[C@@H]1CCOc2ccccc21)[C@@H](C)CC` [Example 17], the IC50 is 0.651 µM.
On the same count and under the same terms, for `CC[C@H](C)[C@@H](CN)NC(=O)[C@H](Cc1nc2ccc(C(C)C)cc2s1)NC(C)=O` [Example 46, (S)-2-acetamido-N-((2S,3S)-1-amino-3-methylpentan-2-yl)-3-(6-isopropylbenzo[d]thiazol-2-yl)propanamide] the value was 0.281 ± 0.029 µM; for `CCC(=O)N[C@@H](Cc1nc2ccc(C(C)(C)C)cc2s1)C(=O)N[C@H](CN)Cc1ccccc1` [Example 223], 0.949 µM; for `CCC(=O)N[C@@H](Cc1nc2ccc(C(C)C)cc2s1)C(=O)N[C@H](C(=O)NCCN1CCOCC1)C1CCN(C(=O)OC(C)(C)C)CC1` [Example 264], 1.5 µM.
Same read-out and setting: the same measure for `CCC(=O)N[C@@H](Cc1nc2ccccc2o1)C(=O)N[C@H](C(=O)N[C@@H](CCCCN)C(=O)NC(c1ccccc1)c1ccccc1)[C@@H](C)CC` [Example 154]: 0.981 µM.
The same measure, in the same setting: for `CC[C@H](C)[C@H](NC(=O)[C@H](Cc1nc2ccc(C(C)C)cc2s1)NC(=O)NC)C(=O)N[C@@H](CCCCN)C(=O)N[C@@H](CC(C)C)C(N)=O` [Example 278] ({NHMe-CO}-[Ala(6-iPr-benzothiazol-2-yl)]IKL-NH2) the value was 0.0682 µM; for `CCC(=O)N[C@@H](Cc1nc2ccc(C(C)C)cc2s1)C(=O)N[C@@H](CC)C(=O)N[C@@H](CCCCN)C(=O)N[C@@H](CC(C)C)C(N)=O` [Example 281] (Propionyl-[Ala(6-iPr-benzothiazol-2-yl)][Abu]KL-NH2), 0.0374 µM.
With `CC[C@H](C)[C@@H](CN)NC(=O)[C@H](Cc1nc2ccc(C(C)C)cc2s1)NC(=O)C(C)C` [Example 50, (S)—N-((2S,3S)-1-amino-3-methylpentan-2-yl)-2-isobutyramido-3-(6-isopropylbenzo[d]thiazol-2-yl)propanamide], the IC50 is 0.255 ± 0.029 µM.
Consider `CCC(=O)N[C@@H](Cc1nc2ccc(C(C)C)cc2s1)C(=O)N[C@H](CN)C1CCCCC1` [Example 56, (S)—N—((S)-2-amino-1-cyclohexylethyl)-3-(6-isopropylbenzo[d]thiazol-2-yl)-2-propionamidopropanamide], for which the IC50 was determined as 0.0796 µM.
Take `CCC(=O)N[C@@H](Cc1nc2ccc(C)cc2s1)C(=O)N[C@H](C(=O)N[C@@H](CCCCN)C(=O)NC(c1ccccc1)c1ccccc1)C1CCCC1` [Example 173]: the IC50 worked out at 0.0581 µM.
On the same count and under the same terms, the same measure for `CCC(=O)N[C@@H](Cc1nc2ccc(F)cc2s1)C(=O)N[C@H](C(=O)N[C@@H](CCCCN)C(=O)NC(c1ccccc1)c1ccccc1)C1CCCC1` [Example 28]: 0.413 µM; for `CCC(=O)N[C@@H](Cc1nc2cccc(Cl)c2s1)C(=O)N[C@H](C(=O)N[C@@H](CCCCN)C(=O)NC(c1ccccc1)c1ccccc1)C1CCCC1` [Example 31]: 0.137 µM.
For the compound `CCC(=O)N[C@@H](Cc1ccc2ccccc2c1)C(=O)N[C@H](C(=O)N[C@@H](CCCCN)C(=O)N[C@H]1CCOc2ccccc21)[C@@H](C)CC` [Example 18], the IC50 was 3.05 µM.
For the compound `CCC(=O)N[C@@H](Cc1nc2ccc(Cl)cc2s1)C(=O)N[C@H](CN)CC1CCCCC1` [Example 218], the IC50 came out at 0.316 µM.
Take `CCC(=O)N[C@H](CNC(=O)Cc1ccccn1)Cc1nc2ccc(Cl)cc2s1` [Example 257]: the IC50 worked out at 3.45 µM.
The same measure, in the same setting: the same measure for `CCC(=O)N[C@H](CNC(=O)C1(N)CCCCCCC1)Cc1nc2ccc(C(C)C)cc2s1` [Example 116]: 2.2 µM; for `CCC(=O)N[C@@H](Cc1nc2ccc(Cl)cc2s1)C(=O)N[C@@H](Cc1ccccn1)C(=O)N[C@@H](CCCCN)C(=O)N[C@@H]1CCOc2ccccc21` [Example 202]: 0.251 µM; for `CCC(=O)N[C@@H](Cc1nc2cc(Cl)ccc2s1)C(=O)N[C@H](C(=O)N[C@@H](CCCCN)C(=O)NC(c1ccccc1)c1ccccc1)C1CCCC1` [Example 29]: 0.572 µM.
`CCC(=O)N[C@@H](Cc1nc2ccc(C(C)C)cc2s1)C(=O)N[C@H](CNC(=O)c1ncc[nH]1)C1CCCCC1` [Example 268]: the IC50 was determined as 1.21 µM.
The same measure, in the same setting: for `CCC(=O)N[C@@H](Cc1nc2ccc(Cl)cc2s1)C(=O)N[C@H](C(=O)N[C@@H](CCCCN)C(=O)N[C@@H]1CCOc2ccccc21)C1CCOCC1` [Example 37] the value was 0.049 µM; for `CCC(=O)N[C@@H](Cc1ccc2ccccc2c1)C(=O)N[C@H](C(=O)N[C@@H](CCCCN)C(=O)NC(c1ccccc1)c1ccccc1)[C@@H](C)CC` [Example 12], 0.611 ± 0.193 µM; for `CCC(=O)N[C@@H](Cc1ccc2ccccc2c1)C(=O)N[C@H](C(=O)N[C@@H](CCCCN1CCOCC1)C(=O)NC(c1ccc(F)cc1)c1ccc(F)cc1)C1CCCC1` [Example 141], 0.871 µM.
On the same count and under the same terms, the same measure for `CCC(=O)N[C@@H](Cc1ccc2ccccc2c1)C(=O)N[C@H](C(=O)N[C@@H](CCCCN)C(=O)NC(c1ccc(F)cc1)c1ccc(F)cc1)[C@@H](C)CC` [Example 128]: 0.321 ± 0.032 µM.
The same measure, in the same setting: the same measure for `CCC(=O)N[C@@H](Cc1nc2ccc(Cl)cc2o1)C(=O)N[C@H](C(=O)N[C@@H](CCCCN)C(=O)N[C@@H]1CCOc2ccccc21)C1CCOCC1` [Example 198]: 0.12 µM; for `CCC(=O)N[C@@H](Cc1nc2ccc(Cl)cc2s1)C(=O)N[C@@H](C[C@H]1CC[C@H](CN)CC1)C(=O)N[C@@H](CCCCN)C(=O)N[C@@H]1CCOc2ccccc21` [Example 200]: 0.203 µM; for `CCCC(=O)N[C@@H](Cc1nc2ccc(C(C)C)cc2s1)C(=O)N[C@H](CN)[C@@H](C)CC` [Example 51, N—((S)-1-(((2S,3 S)-1-amino-3-methylpentan-2-yl)amino)-3-(6-isopropylbenzo[d]thiazol-2-yl)-1-oxopropan-2-yl)butyramide]: 0.944 ± 0.176 µM.
Take `CCC(=O)N[C@H](CNC(=O)c1ccccc1)Cc1nc2ccc(Cl)cc2s1` [Example 252]: the IC50 worked out at 1.83 µM.
